US20230002397A1, “SMALL MOLECULE DEGRADERS OF HELIOS AND METODS OF USE” (DANA-FARBER CANCER INSTITUTE, INC., priority 2019, published 2023)

Biological target: T1, IKZF2 (Homo sapiens, UniProt Q96SW2+Q9UKS7)
T1 construct: CRISPR/Cas9—mediated insertion of the HiBiT peptide tag (Promega™) to the N-terminus of the IKZF2 gene locus; endogenous in cells; host or cells: MOLT4 cells, with CRISPR/Cas9 knock-in of HiBiT at the endogenous IKZF2 locus
Assay: HiBit-IKZF2 assay (HiBiT-Helios degradation in MOLT4 cells)
Assay type: cell-based
Details: for Dmax: MOLT-4, extent of degradation from highest to lowest concentration, 10 μM to 0.00026 μM, read-out: Dmax; for DC50: concentration at which 50% of HiBiT-Helios degradation was achieved
Protocol: The HiBiT protein tagging system was applied to MOLT4 cells via a CRISPR/Cas9—mediated insertion of the HiBiT peptide tag (Promega™) to the N-terminus of the IKZF2 gene locus (Neon™ Transfection System). The resulting HiBiT-Helios stable cell line was treated with the following compounds in triplicates following a 13-point concentration scheme ranging from 10 μM to 0.00026 μM. At the indicated timepoints, the Nano-Glo® HiBiT Lytic Detection System (Promega™) was utilized for detecting bioluminescence of the HiBiT tag in treated cells: abundance of the tag is proportionate to the level of luminescence. Following normalization to DMSO, dose-response curves were plotted (GraphPad Prism) to determine the concentration points at which 50% of HiBiT-Helios degradation was achieved by each compound. The extent of degradation (range of luminescence) from the highest to lowest concentration points was calculated to determine the Dmax.

T1 sequence (Q9UKS7 whole entry): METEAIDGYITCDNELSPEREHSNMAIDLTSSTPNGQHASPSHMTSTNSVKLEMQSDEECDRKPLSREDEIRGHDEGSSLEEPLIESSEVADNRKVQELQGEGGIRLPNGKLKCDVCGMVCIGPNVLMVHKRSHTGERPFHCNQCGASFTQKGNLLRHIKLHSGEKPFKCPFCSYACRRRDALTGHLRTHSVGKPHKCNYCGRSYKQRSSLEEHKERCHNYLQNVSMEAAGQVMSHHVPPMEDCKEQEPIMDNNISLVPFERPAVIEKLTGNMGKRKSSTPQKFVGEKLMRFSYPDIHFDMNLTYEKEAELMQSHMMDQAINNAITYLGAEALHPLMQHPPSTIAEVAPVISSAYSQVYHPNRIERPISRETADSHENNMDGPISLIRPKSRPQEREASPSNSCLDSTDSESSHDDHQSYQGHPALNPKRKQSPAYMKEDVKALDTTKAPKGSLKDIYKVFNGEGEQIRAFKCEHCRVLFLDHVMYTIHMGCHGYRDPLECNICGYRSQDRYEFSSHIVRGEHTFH
T1 sequence (Q96SW2 whole entry): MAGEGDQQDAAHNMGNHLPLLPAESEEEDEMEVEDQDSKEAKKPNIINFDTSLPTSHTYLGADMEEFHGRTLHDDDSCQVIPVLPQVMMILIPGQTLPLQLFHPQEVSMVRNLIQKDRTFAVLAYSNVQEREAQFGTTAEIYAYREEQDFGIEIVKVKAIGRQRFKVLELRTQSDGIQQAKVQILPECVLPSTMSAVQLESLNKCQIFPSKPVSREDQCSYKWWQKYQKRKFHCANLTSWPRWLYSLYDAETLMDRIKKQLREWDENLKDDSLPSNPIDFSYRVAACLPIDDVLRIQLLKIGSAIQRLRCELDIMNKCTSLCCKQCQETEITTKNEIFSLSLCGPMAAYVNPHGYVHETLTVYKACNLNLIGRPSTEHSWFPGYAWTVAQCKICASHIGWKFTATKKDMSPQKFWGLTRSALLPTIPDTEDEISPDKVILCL
T1 sequence (Q16531 whole entry partner): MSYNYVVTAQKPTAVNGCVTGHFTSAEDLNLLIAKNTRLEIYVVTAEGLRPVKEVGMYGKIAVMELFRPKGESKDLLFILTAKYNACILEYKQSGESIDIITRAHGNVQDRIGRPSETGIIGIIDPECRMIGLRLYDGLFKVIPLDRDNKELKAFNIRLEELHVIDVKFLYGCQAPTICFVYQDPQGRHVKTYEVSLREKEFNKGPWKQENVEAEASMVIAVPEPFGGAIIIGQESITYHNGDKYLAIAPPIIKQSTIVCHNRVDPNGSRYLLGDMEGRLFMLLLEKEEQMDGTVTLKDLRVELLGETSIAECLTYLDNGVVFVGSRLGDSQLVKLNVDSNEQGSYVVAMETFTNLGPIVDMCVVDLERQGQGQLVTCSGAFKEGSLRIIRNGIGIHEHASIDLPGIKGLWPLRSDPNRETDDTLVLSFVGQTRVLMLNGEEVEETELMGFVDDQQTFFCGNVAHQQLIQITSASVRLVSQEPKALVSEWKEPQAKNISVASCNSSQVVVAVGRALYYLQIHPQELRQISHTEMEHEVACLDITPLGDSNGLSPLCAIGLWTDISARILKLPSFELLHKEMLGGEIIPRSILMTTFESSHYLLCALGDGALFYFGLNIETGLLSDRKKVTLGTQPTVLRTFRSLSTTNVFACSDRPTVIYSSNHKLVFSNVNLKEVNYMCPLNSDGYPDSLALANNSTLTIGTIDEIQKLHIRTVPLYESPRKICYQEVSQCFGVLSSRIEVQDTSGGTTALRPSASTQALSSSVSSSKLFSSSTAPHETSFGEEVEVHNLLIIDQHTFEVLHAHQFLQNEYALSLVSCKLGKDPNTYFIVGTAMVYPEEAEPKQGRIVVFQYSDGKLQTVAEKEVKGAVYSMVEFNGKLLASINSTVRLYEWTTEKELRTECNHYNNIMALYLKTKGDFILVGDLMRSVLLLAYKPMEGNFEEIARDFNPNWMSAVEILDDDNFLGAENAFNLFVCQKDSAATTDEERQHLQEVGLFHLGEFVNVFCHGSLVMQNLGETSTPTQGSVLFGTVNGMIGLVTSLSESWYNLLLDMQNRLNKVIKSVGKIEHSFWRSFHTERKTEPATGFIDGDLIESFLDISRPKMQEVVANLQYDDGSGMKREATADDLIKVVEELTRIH

Dmax [%]	DC50 [nM]	Compound
50 to 70	10 to 30	CP(C)(=O)c1cccc(Nc2cccc(CN3CCC(c4ccc5c(c4)CN(C4CCC(=O)NC4=O)C5=O)CC3)c2)c1 (stereo not shown) [Compound 135, 3-(5-(1-(3-((3-(dimethylphosphoryl)phenyl)amino)benzyl)piperidin-4-yl)-1-oxoisoindolin-2-yl)piperidine-2,6-dione]
50 to 70	< 10	O=C1CCC(N2Cc3cc(C4CCN(Cc5ccnc(Nc6ccccc6)c5)CC4)ccc3C2=O)C(=O)N1 (stereo not shown) [Compound 137]
50 to 70	30 to 150	O=C1CCC(N2Cc3cc(C4CCN(Cc5cnc(Nc6ccccc6)nc5)CC4)ccc3C2=O)C(=O)N1 (stereo not shown) [Compound 139]
50 to 70	10 to 30	O=C1CCC(N2Cc3cc(C4CCN(Cc5ccc(Nc6ccccc6)nc5)CC4)ccc3C2=O)C(=O)N1 (stereo not shown) [Compound 142]
50 to 70	30 to 150	O=C1CCC(N2Cc3cc(C4CCN(Cc5ccc(Nc6ccccn6)cc5)CC4)ccc3C2=O)C(=O)N1 (stereo not shown) [Compound 145]
50 to 70	10 to 30	O=C1CCC(N2Cc3cc(C4CCN(Cc5cnc(Nc6ccccc6)s5)CC4)ccc3C2=O)C(=O)N1 (stereo not shown) [Compound 148]
50 to 70	< 10	O=C1CCC(N2Cc3cc(C4CCN(Cc5cccc(Nc6ncccn6)c5)CC4)ccc3C2=O)C(=O)N1 (stereo not shown) [Compound 149]
50 to 70	< 10	O=C1CCC(N2Cc3cc(C4CCN(Cc5cccc(C(=O)Nc6ccccn6)c5)CC4)ccc3C2=O)C(=O)N1 (stereo not shown) [Compound 156]
30 to 50	10 to 30	O=C1CCC(N2Cc3cc(C4CCN(Cc5ccc6c(c5)C(=O)N(c5ncccn5)C6)CC4)ccc3C2=O)C(=O)N1 (stereo not shown) [Compound 178]
50 to 70	30 to 150	O=C1CCC(N2Cc3cc(C4CCN(Cc5ccc6c(c5)C(=O)N(c5ncccn5)CC6)CC4)ccc3C2=O)C(=O)N1 (stereo not shown) [Compound 182]
50 to 70	< 10	O=C1CCC(N2Cc3cc(C4CCN(Cc5cccc(Nc6ncccn6)c5F)CC4)ccc3C2=O)C(=O)N1 (stereo not shown) [Compound 188]
50 to 70	10 to 30	O=C1CCC(N2Cc3cc(C4CCN(Cc5cnc(Nc6ccccc6)o5)CC4)ccc3C2=O)C(=O)N1 (stereo not shown) [Compound 191]

The next lines start with the compound.

Compound	Dmax [%]	DC50 [nM]
O=C1CCC(N2Cc3cc(C4CCN(Cc5cccc(N6Cc7ccccc7S6(=O)=O)c5)CC4)ccc3C2=O)C(=O)N1 (stereo not shown) [Compound 136]	50 to 70	< 10
CP(C)(=O)c1ccccc1NC(=O)c1cccc(CN2CCC(c3ccc4c(c3)CN(C3CCC(=O)NC3=O)C4=O)CC2)c1 (stereo not shown) [Compound 138]	50 to 70	< 10
O=C1CCC(N2Cc3cc(C4CCN(Cc5ccc(C(=O)Nc6ccccc6)nc5)CC4)ccc3C2=O)C(=O)N1 (stereo not shown) [Compound 141]	50 to 70	30 to 150
O=C1CCC(N2Cc3cc(C4CCN(Cc5ccccc5C(=O)Nc5ccccc5)CC4)ccc3C2=O)C(=O)N1 (stereo not shown) [Compound 144]	50 to 70	10 to 30
O=C1CCC(N2Cc3cc(C4CCN(Cc5ccc6c(c5)C(=O)N(c5ccccc5)C6)CC4)ccc3C2=O)C(=O)N1 (stereo not shown) [Compound 146, 3-(1-oxo-5-(1-((3-oxo-2-phenylisoindolin-5-yl)methyl)piperidin-4-yl)isoindolin-2-yl)piperidine-2,6-dione]	> 70	10 to 30
O=C1CCC(N2Cc3cc(C4CCN(Cc5ccc(N6CCCC6=O)cc5)CC4)ccc3C2=O)C(=O)N1 (stereo not shown) [Compound 147]	50 to 70	30 to 150
O=C1CCC(N2Cc3cc(C4CCN(Cc5ccc(S(=O)(=O)Nc6ccccn6)cc5)CC4)ccc3C2=O)C(=O)N1 (stereo not shown) [Compound 157]	50 to 70	30 to 150
O=C1CCC(N2Cc3cc(C4CCN(Cc5ccc(C(=O)Nc6ccccc6)cc5)CC4)ccc3C2=O)C(=O)N1 (stereo not shown) [Compound 158]	50 to 70	30 to 150
O=C1CCC(N2Cc3cc(C4CCN(Cc5cccc(N6CCCCC6=O)c5)CC4)ccc3C2=O)C(=O)N1 (stereo not shown) [Compound 161]	30 to 50	10 to 30
O=C1CCC(N2Cc3cc(C4CCN(Cc5cccc(S(=O)(=O)N6C7CCC6COC7)c5)CC4)ccc3C2=O)C(=O)N1 (stereo not shown) [Compound 162]	50 to 70	< 10
O=C1CCC(N2Cc3cc(C4CCN(Cc5ccc(S(=O)(=O)N(c6ccccc6)C6COC6)cc5)CC4)ccc3C2=O)C(=O)N1 (stereo not shown) [Compound 165]	50 to 70	< 10
O=C1CCC(N2Cc3cc(C4CCN(Cc5ccc(S(=O)(=O)N6CCc7ccccc76)cc5)CC4)ccc3C2=O)C(=O)N1 (stereo not shown) [Compound 167]	50 to 70	< 10
O=C1CCC(N2Cc3cc(C4CCN(Cc5ccc(S(=O)(=O)N6CCC7(CC7)C6)cc5)CC4)ccc3C2=O)C(=O)N1 (stereo not shown) [Compound 169]	50 to 70	< 10
CN(C(=O)c1ccccc1)c1ccc(CN2CCC(c3ccc4c(c3)CN(C3CCC(=O)NC3=O)C4=O)CC2)cc1 (stereo not shown) [Compound 170]	50 to 70	10 to 30
O=C1CCC(N2Cc3cc(C4CCN(Cc5ccc6c(n5)C(=O)N(c5ccccc5)C6)CC4)ccc3C2=O)C(=O)N1 (stereo not shown) [Compound 172]	30 to 50	10 to 30
O=C1CCC(N2Cc3cc(C4CCN(Cc5cc6c(cn5)CN(c5ccccc5)C6=O)CC4)ccc3C2=O)C(=O)N1 (stereo not shown) [Compound 173]	50 to 70	10 to 30
O=C1CCC(N2Cc3cc(C4CCN(Cc5ccc6c(c5)C(=O)N(c5ccccc5F)C6)CC4)ccc3C2=O)C(=O)N1 (stereo not shown) [Compound 174]	50 to 70	< 10
O=C1CCC(N2Cc3cc(C4CCN(Cc5ccc6c(c5)C(=O)N(c5cccc(F)c5)C6)CC4)ccc3C2=O)C(=O)N1 (stereo not shown) [Compound 175]	50 to 70	< 10
O=C1CCC(N2Cc3cc(C4CCN(Cc5ccc6c(c5)C(=O)N(c5cccc(Cl)c5)C6)CC4)ccc3C2=O)C(=O)N1 (stereo not shown) [Compound 176]	> 70	30 to 150
N#Cc1ccc(N2Cc3ccc(CN4CCC(c5ccc6c(c5)CN(C5CCC(=O)NC5=O)C6=O)CC4)cc3C2=O)c(F)c1 (stereo not shown) [Compound 177]	50 to 70	< 10
N#Cc1ccccc1N1Cc2ccc(CN3CCC(c4ccc5c(c4)CN(C4CCC(=O)NC4=O)C5=O)CC3)cc2C1=O (stereo not shown) [Compound 179]	50 to 70	< 10
O=C1CCC(N2Cc3cc(C4CCN(Cc5ccc6c(c5)C(=O)N(c5ccc(F)cc5)C6)CC4)ccc3C2=O)C(=O)N1 (stereo not shown) [Compound 180]	50 to 70	10 to 30
O=C1CCC(N2Cc3cc(C4CCN(Cc5ccc6c(c5)C(=O)N(c5ccccc5)CCC6)CC4)ccc3C2=O)C(=O)N1 (stereo not shown) [Compound 183, 3-(1-oxo-5-(1-((1-oxo-2-phenyl-2,3,4,5-tetrahydro-1H-benzo[c]azepin-8-yl)methyl)piperidin-4-yl)isoindolin-2-yl)piperidine-2,6-dione]	50 to 70	< 10
O=C1CCC(N2Cc3cc(C4CCN(Cc5ccc6c(c5)C(=O)N(c5ccccn5)CCC6)CC4)ccc3C2=O)C(=O)N1 (stereo not shown) [Compound 184]	50 to 70	10 to 30
N#Cc1ccc(CN2CCC(c3ccc4c(c3)CN(C3CCC(=O)NC3=O)C4=O)CC2)nc1Nc1ccccc1 (stereo not shown) [Compound 186]	50 to 70	30 to 150
O=C1CCC(N2Cc3cc(C4CCN(Cc5ccc(F)c(Nc6ccccc6)n5)CC4)ccc3C2=O)C(=O)N1 (stereo not shown) [Compound 187]	50 to 70	10 to 30
